Measured values reported in ChEMBL document CHEMBL3638533, “4-carboxybenzylamino derivatives as histone deacetylase inhibitors” (2015).
pIC50: −log10 of the molar value.

Target: Histone deacetylase 1 (Homo sapiens, UniProt Q13547)
Assay: Flag Assay: Novel compounds were tested for their ability to inhibit histone deacetylase, subtype 1 (HDAC1) using an in vitro deacetylation assay. The enzyme source for this assay was an epitope-tagged human HDAC1 complex immuno-purified from stably expressing mammalian cells. The substrate consisted of a commercial product containing an acetylated lysine side chain (BIOMOL Research Laboratories, Inc., Plymouth Meeting, Pa.). Upon deacetylation of the substrate by incubation with the purified HDAC1 complex, a fluorophore is produced that is directly proportional to the level of deacetylation.

Sequence of Histone deacetylase 1 (Q13547 whole entry): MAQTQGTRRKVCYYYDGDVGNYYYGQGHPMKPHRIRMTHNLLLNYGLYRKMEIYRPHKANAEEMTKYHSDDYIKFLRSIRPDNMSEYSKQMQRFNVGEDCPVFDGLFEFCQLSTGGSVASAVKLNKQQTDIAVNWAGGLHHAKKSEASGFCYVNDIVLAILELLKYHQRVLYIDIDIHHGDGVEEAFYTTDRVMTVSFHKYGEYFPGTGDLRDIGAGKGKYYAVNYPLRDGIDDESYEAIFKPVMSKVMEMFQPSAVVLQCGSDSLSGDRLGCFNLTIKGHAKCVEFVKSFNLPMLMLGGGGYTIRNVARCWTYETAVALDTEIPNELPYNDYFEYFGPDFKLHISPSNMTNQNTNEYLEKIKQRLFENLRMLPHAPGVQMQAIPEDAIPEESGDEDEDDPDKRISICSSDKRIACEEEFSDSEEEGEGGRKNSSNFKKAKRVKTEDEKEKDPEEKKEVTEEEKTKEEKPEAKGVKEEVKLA

pIC50: 5.60
Compound: O=C(Nc1cc(-c2ccccc2)ccc1O)c1ccc(CNCCc2c[nH]cn2)cc1
